We go through seven compounds from ChEMBL document CHEMBL3822423 (J Med Chem, 2016).

≈ marks a conversion by molar mass, not a printed value. Calls of active or inactive are those of the source. The rule behind the calls is not given here.

In one assay the test system is Micrococcus luteus. Nature of the assay: Antibacterial activity against Micrococcus luteus ATCC 4698 after 18 to 24 hrs. The assay is classed as functional. The settings on record: NCTC 2665.
The MIC is the least concentration at which growth counts as inhibited. In turn, `CCn1cc(C(C)=O)c(=O)c2cc(N3CCCC3)c(Cl)cc21` came in with an MIC of 10.7 µg/mL (≈ 33.6 µM).
As for `CCn1cc(-c2csc(N)n2)c(=O)c2cc(F)c(N3CCOCC3)cc21`, the MIC is 13.3 µg/mL (≈ 35.5 µM).
Take `CCn1cc(-c2csc(N)n2)c(=O)c2cc(F)ccc21`: the MIC stood at 18.7 µg/mL (≈ 64.6 µM).
`CCn1cc(-c2csc(N)n2)c(=O)c2cc(N3CCCCC3)c(Cl)cc21` had an MIC of 49 µg/mL (≈ 126 µM).
Regarding `CCn1cc(-c2csc(N)n2)c(=O)c2cc(Cl)cc(Cl)c21`, the lowest concentration to inhibit growth (MIC) was 16 µg/mL (≈ 47 µM).
Same read-out and setting: to `CCn1cc(-c2csc(N)n2)c(=O)c2cccc(F)c21` belongs 2.7 µg/mL (≈ 9.33 µM); to `O=C(N[C@H](CO)[C@H](O)c1ccc([N+](=O)[O-])cc1)C(Cl)Cl` [CHLORAMPHENICOL], 13.3 µg/mL (≈ 41.2 µM).

Another assay concerns Staphylococcus aureus. Nature of the assay: Antibacterial activity against methicillin-resistant Staphylococcus aureus N315 after 18 to 24 hrs.
Details: not given
The format is functional.
`CCn1cc(C(C)=O)c(=O)c2cc(N3CCCC3)c(Cl)cc21` showed an MIC of 16 µg/mL (≈ 50.2 µM).
The same measure, in the same setting: the value for `CCn1cc(-c2csc(N)n2)c(=O)c2cc(F)c(N3CCOCC3)cc21` was 32 µg/mL (≈ 85.5 µM); that for `CCn1cc(-c2csc(N)n2)c(=O)c2cc(F)ccc21` was “inactive”.
`CCn1cc(-c2csc(N)n2)c(=O)c2cc(N3CCCCC3)c(Cl)cc21` displayed an MIC of 24.6 µg/mL (≈ 63.3 µM).
For `CCn1cc(-c2csc(N)n2)c(=O)c2cc(Cl)cc(Cl)c21`, the MIC result is “inactive”.
For the compound `CCn1cc(-c2csc(N)n2)c(=O)c2cccc(F)c21`, the MIC entry was “inactive”.
Compound `O=C(N[C@H](CO)[C@H](O)c1ccc([N+](=O)[O-])cc1)C(Cl)Cl` [CHLORAMPHENICOL] returned an MIC of 21.3 µg/mL (≈ 65.9 µM).

In a further assay the test system is Staphylococcus aureus. Nature of the assay: Antibacterial activity against Staphylococcus aureus ATCC 25923 after 18 to 24 hrs. The format is functional.
Details: not given
`CCn1cc(C(C)=O)c(=O)c2cc(N3CCCC3)c(Cl)cc21` returned an MIC of 18.7 µg/mL (≈ 58.7 µM).
Compound `CCn1cc(-c2csc(N)n2)c(=O)c2cc(F)c(N3CCOCC3)cc21` returned an MIC of 0.8 µg/mL (≈ 2.14 µM).
On the same count and under the same terms, to `CCn1cc(-c2csc(N)n2)c(=O)c2cc(F)ccc21` belongs 128 µg/mL (≈ 442 µM); to `CCn1cc(-c2csc(N)n2)c(=O)c2cc(N3CCCCC3)c(Cl)cc21`, 61.2 µg/mL (≈ 157 µM); to `CCn1cc(-c2csc(N)n2)c(=O)c2cc(Cl)cc(Cl)c21`, 3 µg/mL (≈ 8.82 µM).
Still for that read-out and setting: to `CCn1cc(-c2csc(N)n2)c(=O)c2cccc(F)c21` belongs “inactive”; to `O=C(N[C@H](CO)[C@H](O)c1ccc([N+](=O)[O-])cc1)C(Cl)Cl` [CHLORAMPHENICOL], 16 µg/mL (≈ 49.5 µM).

In a further assay the test system is Bacillus spizizenii. Nature of the assay: Antibacterial activity against Bacillus subtilis ATCC 6633 after 18 to 24 hrs. The format is functional.
Details: not given
`CCn1cc(C(C)=O)c(=O)c2cc(N3CCCC3)c(Cl)cc21` displayed an MIC of 10.7 µg/mL (≈ 33.6 µM).
The compound `CCn1cc(-c2csc(N)n2)c(=O)c2cc(F)c(N3CCOCC3)cc21` yielded an MIC of 18.7 µg/mL (≈ 49.9 µM).
In the case of `CCn1cc(-c2csc(N)n2)c(=O)c2cc(F)ccc21`, inhibition of growth (MIC) required 3.3 µg/mL (≈ 11.4 µM).
Regarding `CCn1cc(-c2csc(N)n2)c(=O)c2cc(N3CCCCC3)c(Cl)cc21`, it took 19.6 µg/mL (≈ 50.4 µM) to inhibit growth (MIC).
Still for that read-out and setting: the value for `CCn1cc(-c2csc(N)n2)c(=O)c2cc(Cl)cc(Cl)c21` was 2.7 µg/mL (≈ 7.94 µM).
Same read-out and setting: the value for `CCn1cc(-c2csc(N)n2)c(=O)c2cccc(F)c21` was 13.3 µg/mL (≈ 46 µM); that for `O=C(N[C@H](CO)[C@H](O)c1ccc([N+](=O)[O-])cc1)C(Cl)Cl` [CHLORAMPHENICOL] was 26.6 µg/mL (≈ 82.3 µM).

The subject of a further assay is Pseudomonas aeruginosa. Nature of the assay: Antibacterial activity against Pseudomonas aeruginosa ATCC 9027 after 18 to 24 hrs. The assay is classed as functional.
Details: not given
Consider `CCn1cc(C(C)=O)c(=O)c2cc(N3CCCC3)c(Cl)cc21`, for which the MIC was found to be 9.3 µg/mL (≈ 29.2 µM).
Turning to `CCn1cc(-c2csc(N)n2)c(=O)c2cc(F)c(N3CCOCC3)cc21`, inhibition of growth (MIC) required 10.7 µg/mL (≈ 28.6 µM).
Still for that read-out and setting: the value for `CCn1cc(-c2csc(N)n2)c(=O)c2cc(F)ccc21` was 13.3 µg/mL (≈ 46 µM); that for `CCn1cc(-c2csc(N)n2)c(=O)c2cc(N3CCCCC3)c(Cl)cc21` was 34.4 µg/mL (≈ 88.4 µM); that for `CCn1cc(-c2csc(N)n2)c(=O)c2cc(Cl)cc(Cl)c21` was 2.3 µg/mL (≈ 6.76 µM).
`CCn1cc(-c2csc(N)n2)c(=O)c2cccc(F)c21` had an MIC of 24 µg/mL (≈ 82.9 µM).
Consider `O=C(N[C@H](CO)[C@H](O)c1ccc([N+](=O)[O-])cc1)C(Cl)Cl` [CHLORAMPHENICOL], for which it took 32 µg/mL (≈ 99 µM) to inhibit growth (MIC).

The subject of the next assay is Escherichia coli. Nature of the assay: Antibacterial activity against Escherichia coli ATCC 25922 after 18 to 24 hrs. The assay is classed as functional.
Details: not given
With `CCn1cc(C(C)=O)c(=O)c2cc(N3CCCC3)c(Cl)cc21`, the MIC came out at 26.7 µg/mL (≈ 83.8 µM).
Still for that read-out and setting: the value for `CCn1cc(-c2csc(N)n2)c(=O)c2cc(F)c(N3CCOCC3)cc21` was 6 µg/mL (≈ 16 µM); that for `CCn1cc(-c2csc(N)n2)c(=O)c2cc(F)ccc21` was 24 µg/mL (≈ 82.9 µM); that for `CCn1cc(-c2csc(N)n2)c(=O)c2cc(N3CCCCC3)c(Cl)cc21` was 118 µg/mL (≈ 303 µM).
As to `CCn1cc(-c2csc(N)n2)c(=O)c2cc(Cl)cc(Cl)c21`, the MIC amounted to 21.2 µg/mL (≈ 62.3 µM).
The compound `CCn1cc(-c2csc(N)n2)c(=O)c2cccc(F)c21` had an MIC of 9.3 µg/mL (≈ 32.1 µM).
On to `O=C(N[C@H](CO)[C@H](O)c1ccc([N+](=O)[O-])cc1)C(Cl)Cl` [CHLORAMPHENICOL], for which inhibition of growth (MIC) required 13.8 µg/mL (≈ 42.7 µM).

Tested on in the next assay: not listed separately
The experiment in a line: (§1) Antibacterial activity against Eberthella typhosa ATCC 14028 after 18 to 24 hrs.
Details: not given
The assay is classed as functional.
Compound `CCn1cc(C(C)=O)c(=O)c2cc(N3CCCC3)c(Cl)cc21` displayed an MIC of 18.7 µg/mL (≈ 58.7 µM).
Consider `CCn1cc(-c2csc(N)n2)c(=O)c2cc(F)c(N3CCOCC3)cc21`, for which the minimum inhibitory concentration (MIC) stood at 14.7 µg/mL (≈ 39.3 µM).
Take `CCn1cc(-c2csc(N)n2)c(=O)c2cc(F)ccc21`: the MIC worked out at 21.3 µg/mL (≈ 73.6 µM).
As to `CCn1cc(-c2csc(N)n2)c(=O)c2cc(N3CCCCC3)c(Cl)cc21`, the MIC was found to be 17.2 µg/mL (≈ 44.2 µM).
With `CCn1cc(-c2csc(N)n2)c(=O)c2cc(Cl)cc(Cl)c21`, it took 2.7 µg/mL (≈ 7.94 µM) to inhibit growth (MIC).
Same read-out and setting: the value for `O=C(N[C@H](CO)[C@H](O)c1ccc([N+](=O)[O-])cc1)C(Cl)Cl` [CHLORAMPHENICOL] was 26.6 µg/mL (≈ 82.3 µM).

Another assay relates to Eberthella typhosa. The assay is described as §1. The assay is classed as functional.
Details: not given
With `CCn1cc(-c2csc(N)n2)c(=O)c2cccc(F)c21`, the MIC result was “inactive”.

The test system of a further assay is Bacillus. The experiment in a line: Antibacterial activity against Bacillus proteus ATCC 13315 after 18 to 24 hrs.
Details: not given
The assay is classed as functional.
Take `CCn1cc(C(C)=O)c(=O)c2cc(N3CCCC3)c(Cl)cc21`: the MIC came out at 64 µg/mL (≈ 201 µM).
Regarding `CCn1cc(-c2csc(N)n2)c(=O)c2cc(F)c(N3CCOCC3)cc21`, the MIC amounted to 1.7 µg/mL (≈ 4.54 µM).
The compound `CCn1cc(-c2csc(N)n2)c(=O)c2cc(F)ccc21` came in with an MIC of 10.7 µg/mL (≈ 37 µM).
In the case of `CCn1cc(-c2csc(N)n2)c(=O)c2cc(N3CCCCC3)c(Cl)cc21`, the MIC stood at 34.4 µg/mL (≈ 88.4 µM).
For the compound `CCn1cc(-c2csc(N)n2)c(=O)c2cc(Cl)cc(Cl)c21`, the MIC was 3.3 µg/mL (≈ 9.7 µM).
With `CCn1cc(-c2csc(N)n2)c(=O)c2cccc(F)c21`, the MIC came to 256 µg/mL (≈ 885 µM).
Turning to `O=C(N[C@H](CO)[C@H](O)c1ccc([N+](=O)[O-])cc1)C(Cl)Cl` [CHLORAMPHENICOL], the MIC is 32 µg/mL (≈ 99 µM).
